Assay results as given in patent US20240287042A1, “NOVEL COMPOUND HAVING INHIBITORY ACTIVITY AGAINST PENDRIN, AND PHARMACEUTICAL USES THEREOF” (UIF (University Industry Foundation), Yonsei University, priority 2021, published 2024).

How the values were obtained:
human WT SLC26A9 = biological target: T1, human WT SLC26A9 (Homo sapiens, UniProt Q7LBE3); assay: SLC26A9 Cl−/I− exchange activity, YFP fluorescence in LN-215 cells; assay type: cell-based; details: 100 μM, FIG. 3
T1 construct: expressed in transfected cells
T1 sequence (Q7LBE3 1-791): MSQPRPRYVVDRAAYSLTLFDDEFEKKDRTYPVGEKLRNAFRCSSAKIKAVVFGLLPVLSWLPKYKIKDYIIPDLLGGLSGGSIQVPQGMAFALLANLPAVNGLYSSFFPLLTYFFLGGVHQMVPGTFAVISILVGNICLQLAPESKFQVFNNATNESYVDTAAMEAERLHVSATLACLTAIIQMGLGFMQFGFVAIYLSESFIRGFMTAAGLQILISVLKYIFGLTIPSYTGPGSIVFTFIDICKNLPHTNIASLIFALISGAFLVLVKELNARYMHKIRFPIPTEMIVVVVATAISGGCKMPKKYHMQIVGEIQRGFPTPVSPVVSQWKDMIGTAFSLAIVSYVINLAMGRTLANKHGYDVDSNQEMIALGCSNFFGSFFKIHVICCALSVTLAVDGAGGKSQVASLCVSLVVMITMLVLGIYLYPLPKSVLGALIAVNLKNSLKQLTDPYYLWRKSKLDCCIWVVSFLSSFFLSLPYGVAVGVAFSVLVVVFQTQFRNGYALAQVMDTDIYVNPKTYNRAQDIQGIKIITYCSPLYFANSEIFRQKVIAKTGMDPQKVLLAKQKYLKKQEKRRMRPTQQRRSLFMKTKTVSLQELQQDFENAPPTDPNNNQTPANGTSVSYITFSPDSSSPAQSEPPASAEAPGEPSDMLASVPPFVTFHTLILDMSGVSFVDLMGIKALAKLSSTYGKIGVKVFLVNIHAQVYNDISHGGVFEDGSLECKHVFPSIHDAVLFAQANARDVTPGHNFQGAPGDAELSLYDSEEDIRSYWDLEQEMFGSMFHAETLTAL
Protocol: Chinese hamster ovary (CHO)-K1 cells or LN-215 cells were cultured in DMEM medium containing 10% fetal bovine serum (FBS), 100 units/ml of penicillin and 100 μg/ml streptomycin. CHO-K1 cells or LN-215 cells were stably transfected with pcDNA3.1 encoding the halide sensor YFP-H148Q/I152L/F46L and human wild-type (WT)-SLC26A9. Fisher rat thyroid (FRT) cells stably transfected with YFP-H148Q/I152L/F46L and human wild type (WT)-CFTR or human wild type (WT)-ANO1 were cultured in DMEM/F-12 medium containing 10% fetal bovine serum (FBS), 100 units/ml of penicillin, and 100 μg/ml of streptomycin.
LN-215 cells expressing human WT SLC26A9 and YFP-F46L/H148Q/I152L, and FRT cells expressing human WT CFTR or ANO1 and YFP-F46L/H148Q/I152L were plated in 96-well microplates at a density of 2×10^4 cells per well, and cultured for 48 hours. […] After culturing at 37° C. for 10 minutes, the 96-well plate was located on the FLUOstar Omega Microplate Reader (BMG Labtech, Ortenberg, Germany) for a fluorescence assay. For assay of the activity of […], fluorescence was recorded continuously (400 ms per point) for 1 second (baseline), whereby each well was assayed individually for SLC26A9-mediated I-influx. Then, 50 μL of NaI-substituted HEPES buffered solution (replacing NaCl with NaI) was added using a liquid injector at 1 second, and YFP fluorescence was recorded for 6 seconds. […]

[1] = system: Adriamycin-induced heart failure mouse model; assay: Diuretic effect in Adriamycin-induced heart failure mouse model; assay type: in vivo, C57BL/6N mice; details: heart failure mice
Protocol: Wild-type male C57BL/6N mice aged 8 weeks and weighing 20-24 g were purchased from Orient Bio (Seongnam, South Korea). Cardiac ultrasound imaging was performed before administration of Adriamycin. […] Five weeks later, cardiac ultrasound imaging was performed to confirm whether heart failure had been induced.
A 100 mg/ml stock concentration of YPI-A4948 dissolved in DMSO was prepared to have final concentrations of 0.1 mg/kg/100 ul, 0.5 mg/kg/100 ul and 1 mg/kg/100 ul (1% DMSO+DW), respectively. Heart failure mice were placed in mouse metabolic cages, and water and food were restricted. Before administering YPI-A4948, the bladder of the mouse was stimulated, and YPI-A4948 was injected intraperitoneally alone for two times in total, once every 3 hours for 6 hours. In other groups, it was administered with furosemide at 0.5 mg/kg and 1 mg/kg, respectively, in order to confirm the co-administration effect with other diuretics. Urine was collected from each group of mice after 6 hours.

Compound	Effect on activity of SLC26A9 (human WT SLC26A9)	Diuretic effect, co-administered with furosemide ([1]; 0.5 mg/kg YPI-A4948 and 1.0 mg/kg furosemide)	Diuretic effect, administered alone ([1]; 1 mg/kg i.p. twice in 6 hours)
Cc1ccc2[nH]c(C(=O)O)c(CC(=O)N3CCN(c4c(C)cccc4Cl)CC3)c2c1 [YPI-A4948, 3-(2-(4-(2-Chloro-6-methylphenyl)piperazin-1-yl)-2-oxoethyl)-5-methyl-1H-indole-2-carboxylic acid]	did not inhibit	additive effect	showed a diuretic effect
Cc1ccc(C)c(N2CCN(C(=O)Cc3c(C(=O)O)[nH]c4ccc(Cl)cc34)CC2)c1 [YPI-H05, 5-chloro-3-(2-(4-(2,5-dimethylphenyl)piperazin-1-yl-)-2-oxoethyl)-1H-indole-2-carboxylic acid]	did not inhibit	–	–
